{"source": "patent US20260325655A1", "about": "“DECREASING THE INTRINSICALLY DISORDERED PROTEIN ALPHA-SYNUCLEIN’S LEVELS BY TARGETING ITS STRUCTURED MRNA WITH A RIBONUCLEASE TARGETING CHIMERA” (University of Florida Research Foundation, Incorporated, priority 2023, published 2026)", "key": {"ferritin mRNA": {"system": "ferritin mRNA", "experiment": "ferritin mRNA in SH-SY5Y cells by RT-qPCR", "format": "cell-based, human", "experimental": "RNA extraction and reverse transcription-quantitative polymerase chain reaction (RT-qPCR). Total RNA was extracted from cells using a Quick-RNA MiniPrep Kit (Zymo Research) per the manufacturer's protocol including DNase treatment. For each sample, 200 ng of RNA was reverse transcribed into cDNA by using a qScript cDNA Synthesis Kit (QuantaBio) according to the manufacturer's instructions. To assess the relative mRNA levels, RT-qPCR was performed in triplicate using SYBR Green PCR mater mix (Applied Biosystems) with a Quant Studio 5 Real-Time PCR system. The relative levels of mRNA were calculated by using the ΔΔCt method as previously described.^8"}, "[1]": {"system": "PD patient-derived neurons", "experiment": "total RNA-seq in PD patient-derived dopaminergic neurons", "format": "cell-based, human", "experimental": "RNA-seq analysis. Total RNA was quantified using the Qubit 2.0 Fluorometer (Invitrogen) and an Agilent 2100 Bioanalyzer RNA nano chip. Samples with RIN>9.0 were proceeded to library preparation using NEBNext Ultra II Directional RNA Kit (Cat. #E7760, NEB) following manufacture's protocol. Briefly, 200 ng of total RNA was depleted of ribosomal RNA using the NEBNext rRNA Depletion Module. The product was chemically fragmented using NEBNext Magnesium RNA Fragmentation Module (E6150S, NEB) the at 94° C. for 15 min. First-strand synthesis was performed with random primers, and second strand was synthesized with dUTP in place of dTTP. After end repair and 3′ adenylation, the cDNA was ligated with adaptors and then treated with USER enzyme (Uracil-specific excision reagent). The product was PCR amplified with Illumina-barcoded primers to generate the cDNA libraries. The final libraries were analyzed on the bioanalyzer DNA chips, pooled in equimolar ratios, and loaded onto the NextSeq 500 v2.5 flow cell and sequenced with 2×40 bp paired-end chemistry. The raw data were aligned to the human genome using STAR.^11 Read counts were extracted using featureCounts,^12 and the differential gene analysis was performed using Deseq2.^13\nDopamine neuron induction. For dopamine neuronal induction,^15,16 the dual-SMAD inhibition method^17 was used for floor plate (FP)-based midbrain dopamine (DA) neuron induction with modifications. Prior to differentiation, Matrigel matrix (BD) was thawed at 4° C. overnight or on ice until it is dissolved. Matrigel coated 6-well plates were prepared according to manufacturer's instructions and incubated at 37° C. for at least 1 h before use. iPSCs were dissociated with Accutase (STEMCELL Technologies) and plated (3.5×10^5-4×10^5 cells per cm^2) into a new Matrigel coated plate and grown in mTeSR medium (STEMCELL Technologies) with StemBeads FGF2 (StemCultures) and ROCK inhibitor Y27632 (5 μM, Tocris). After 24 to 48 h, when the cells reached 100% confluency, the differentiation protocol was initiated by feeding the cells with DMEM containing 15% KnockOut Serum Replacement (KSR, Gibco), 2 mM L-glutamine (L-Glut) and 10 μM β-mercaptoethanol for 11 days.\nFloor Plate (FP) induction protocol was followed based on timed exposure to BMP inhibitor LDN193189 (100 nM, PeproTech), ALK inhibitor SB431542 (10 μM, Tocris), recombinant mouse sonic hedgehog N-terminus SHH C25II (100 ng/ml, R&D), Smoothened agonist Purmorphamine (2 μM, PeproTech) and GSK3 inhibitor CHIR99021 (CHIR; 3 μM, PeproTech). KSR medium was gradually shifted to N2 medium (Neurobasal/N2 with B27 Plus Supplement; Gibco) starting on day 5 of differentiation as described previously.^18 On day 11, the medium was changed to Neurobasal/B27/L-Glut containing medium (NB/B27; Gibco) supplemented with CHIR (until day 13) and with BDNF (20 ng/ml; PeproTech), ascorbic acid (0.2 mM), GDNF (20 ng/ml; PeproTech), dibutyryl cAMP (0.5 mM; PeproTech), TGFβ3 (1 ng/ml; PeproTech), and γ-secretase inhibitor DAPT (10 μM; PeproTech) for 9 days. On Day 20 and Day 30 (midbrain DA neuron precursor stages), cells were dissociated using Accutase and replated at high cell density (8× 10^5 cells per cm^2) in dishes pre-coated with 15 μg/ml polyornithine/1 μg/ml laminin/2 μg/ml fibronectin in differentiation medium (NB/B27+BDNF, ascorbic acid, GDNF, dbcAMP, TGFβ3 and DAPT). […]"}, "[2]": {"conditions": "among 461 genes significantly downregulated in PD neurons"}, "[3]": {"conditions": "among 976 genes significantly upregulated in PD neurons"}}}
{"smiles": "CCOC(=O)C1=C(Nc2ccccc2)S/C(=C\\c2ccc(OCCOCCOCCOCCNC(=O)CCCOc3ccc(-n4c(SCC(=O)Nc5ccc6cn[nH]c6c5)nnc4-c4ccncc4)cc3)c(O)c2)C1=O", "note": "[Syn-RiboTAC]", "values": [{"measurement": "effect on ferritin mRNA level", "setting": "ferritin mRNA", "value": "None of the three transcripts was affected"}, {"measurement": "hexokinase 2 (HK2) expression", "setting": "[1]; PD patient-derived neurons, only gene besides SNCA", "value": "significantly decreased"}, {"measurement": "number of PD-downregulated genes improved", "setting": "[1]; [2]", "value": 223}, {"measurement": "percent of PD-downregulated genes improved", "setting": "[1]; [2]", "value": 48, "unit": "%"}, {"measurement": "number of PD-upregulated genes improved (decreased)", "setting": "[1]; [3]", "value": 488}, {"measurement": "percent of PD-upregulated genes improved (decreased)", "setting": "[1]; [3]", "value": 50, "unit": "%"}]}
